From patent US8716437B2 (priority 2007, dated 2014)

Legend:
[1] = system: antiserum to sarafotoxin s6b (anti-S6b); assay: Phage panning on immobilized antiserum to sarafotoxin s6b; format: binding; settings: mixture of five ligands, one round of panning
From the text: A mixture of five ligands: (1) kaliotoxin-1; (2) sarafotoxin s6b; (3) Dendroaspis natriuretic peptide (DNP); (4) fasciculin-2; and (5) camel antibody (CVHH); were mixed and panned on purified receptors (KcsA-Kv1.3). The control was immobilized antiserum to sarafotoxin s6b (anti-S6b). Input and output ligands were verified by genotyping. In this system, shown in Table 6, a 3.6-fold enrichment is seen after one-round of panning.

Kv1.2 = target: T1, Kv1.2 (Rattus norvegicus, UniProt P63142); assay: Two electrode voltage clamp, Xenopus oocytes, Kv1.2; format: cell-based
T1 construct: expressed in transfected cells; host or cells: Xenopus laevis oocytes (cRNA injection)
T1 sequence (P63142 whole entry): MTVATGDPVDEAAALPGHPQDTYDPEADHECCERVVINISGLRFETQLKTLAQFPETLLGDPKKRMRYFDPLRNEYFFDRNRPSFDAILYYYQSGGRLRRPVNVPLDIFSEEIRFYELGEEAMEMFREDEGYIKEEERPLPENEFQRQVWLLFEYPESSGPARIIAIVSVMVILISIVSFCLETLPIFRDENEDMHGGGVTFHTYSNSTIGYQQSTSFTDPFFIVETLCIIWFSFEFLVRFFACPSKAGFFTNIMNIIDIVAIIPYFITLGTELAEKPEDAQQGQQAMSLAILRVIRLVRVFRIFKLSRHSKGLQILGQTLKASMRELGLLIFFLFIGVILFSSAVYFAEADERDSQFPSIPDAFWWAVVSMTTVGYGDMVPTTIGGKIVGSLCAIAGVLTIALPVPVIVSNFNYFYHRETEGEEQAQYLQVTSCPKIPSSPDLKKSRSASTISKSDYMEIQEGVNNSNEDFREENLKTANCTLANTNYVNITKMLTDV
Experimental: (§1) To examine the effect of mokatoxin-1 on activity of potassium ion channels, cDNA encoding Rattus Kv1.1 (NCBI accession number NM_173095), Rattus Kv1.2 (NM_012970), Homo Kv1.3 (NM_002232), or Mus BK (NM_010610) were subcloned into oocyte expression vectors based on PCR3.1 and pGEM. cRNA synthesis was performed with T7 polymerase and the mMessageMachine Kit (Ambion, Austin, Tex.) according to manufacturers instructions. cRNA concentrations were determined spectroscopically. For two electrode voltage clamp recordings oocytes were extracted from Xenopus laevis and defoliculated with Collagenase Type 2 (Worthington, Lakewood, N.J.). Oocytes were maintained in ND91 solution containing 2 mM KCl, 91 mM NaCl, 1 mM MgCl2, 1.8 mM CaCl2, and 5 mM HEPES, pH 7.5, supplemented with 1% Penicillin/Streptomycin (Cellgro, Hemdon, Va.) and 0.1% Gentamycin sulfate (Gibco, Grand Island, N.Y.)) at 16° C. Stage V and VI oocytes were injected with 8 pg to 4 ng cRNA, and currents recorded 1 to 4 days later.
(§2) For dose-response measurements of toxin block of Kv1.1, Kv1,2, or Kv1.3 peak currents were recorded during a 500 ms step to 0 mV from a holding voltage of −100 mV, followed by a 200 ms step to −135 mV every 30 s. To determine the kinetics of toxin block oocytes were held at −100 mV and stepped to the test voltage of 0 mV for 100 ms followed by a 200 ms duration step to −135 mV every 2 s. BK currents were recorded during a 50 ms step to +60 mV from a holding voltage of −80 mV, followed by a 40 ms step to −100 mV every 3 s. The perfusion solution contained 2 mM KCl, 96 mM NaCl, 1 mM MgCl2, 1.8 mM CaCl2, 5 mM HEPES, pH 7.5 and 0.1% fatty acid ultra-free BSA fraction V (Roche Diagnostics Corporation, Indianapolis, Ind.). Data acquisition and processing was performed with an oocyte clamp OC-725B (Warner Instruments Corporation, Hamden, Conn.), pCLAMP (Axon, Sunnyvale, Calif.), IGOR Pro (WaveMetrics, Lake Oswego, Oreg.), and Origin6.1 (OriginLab Corporation, Northampton, Mass.) softwares. The equilibrium dissociation rates (KD) for block of Kv1.1, Kv1.2, and Kv1.3 by mokatoxin-1 were determined by fitting the dose-response data and kon and koff were calculated as described by Goldstein and Miller, 1993 (Biophys J. 1993 65 (4):1613-1619).

BK = target: T2, BK (Mus musculus, UniProt Q08460); assay: Two electrode voltage clamp, Xenopus oocytes, BK; format: cell-based
T2 construct: expressed in transfected cells; host or cells: Xenopus laevis oocytes (cRNA injection)
T2 sequence (Q08460 whole entry): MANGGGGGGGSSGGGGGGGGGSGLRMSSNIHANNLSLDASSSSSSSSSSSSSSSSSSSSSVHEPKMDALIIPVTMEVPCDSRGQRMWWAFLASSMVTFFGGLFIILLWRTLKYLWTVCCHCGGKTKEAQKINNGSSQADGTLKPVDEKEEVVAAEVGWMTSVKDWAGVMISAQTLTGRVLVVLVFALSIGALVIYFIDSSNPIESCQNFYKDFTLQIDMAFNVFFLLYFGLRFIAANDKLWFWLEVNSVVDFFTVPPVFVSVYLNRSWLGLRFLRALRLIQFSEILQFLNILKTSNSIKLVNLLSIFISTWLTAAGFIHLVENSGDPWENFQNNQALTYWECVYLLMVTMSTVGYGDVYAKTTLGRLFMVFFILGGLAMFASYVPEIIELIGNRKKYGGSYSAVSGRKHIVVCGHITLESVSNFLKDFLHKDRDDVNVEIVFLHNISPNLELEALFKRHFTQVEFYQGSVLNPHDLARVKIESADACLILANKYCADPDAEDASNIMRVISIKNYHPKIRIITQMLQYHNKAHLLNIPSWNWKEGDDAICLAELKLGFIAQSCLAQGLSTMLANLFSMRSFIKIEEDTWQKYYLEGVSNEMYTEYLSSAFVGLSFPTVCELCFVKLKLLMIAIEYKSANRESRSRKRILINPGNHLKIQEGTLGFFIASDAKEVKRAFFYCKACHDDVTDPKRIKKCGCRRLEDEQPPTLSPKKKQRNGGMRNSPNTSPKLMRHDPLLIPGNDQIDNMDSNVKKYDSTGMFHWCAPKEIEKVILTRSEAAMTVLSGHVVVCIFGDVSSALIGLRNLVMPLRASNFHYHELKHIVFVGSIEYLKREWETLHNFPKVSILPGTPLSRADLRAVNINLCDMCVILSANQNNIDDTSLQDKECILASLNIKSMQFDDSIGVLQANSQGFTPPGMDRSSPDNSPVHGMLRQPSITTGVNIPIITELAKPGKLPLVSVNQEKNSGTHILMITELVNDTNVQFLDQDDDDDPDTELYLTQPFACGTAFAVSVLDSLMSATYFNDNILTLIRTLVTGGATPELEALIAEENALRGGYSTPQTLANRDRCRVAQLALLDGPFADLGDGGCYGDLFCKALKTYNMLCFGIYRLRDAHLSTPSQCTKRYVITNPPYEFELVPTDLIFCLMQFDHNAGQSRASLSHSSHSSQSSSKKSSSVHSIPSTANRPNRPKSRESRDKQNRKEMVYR
Experimental: as §1, §2

guinea pig ileum [2] = assay: Spontaneous motility (twitches) of guinea pig ileum strips; settings: reference toxins 10 nM; mokatoxin-1 1-100 nM
guinea pig ileum [3] = settings: J Pharmacol Exp Ther. 1999; cited from earlier work
Kv1.3 = Kv1.3 (Homo sapiens, UniProt P22001); assay: Two electrode voltage clamp, Xenopus oocytes, Kv1.3; format: cell-based; parameters: expressed in transfected cells; host or cells: Xenopus laevis oocytes (cRNA injection)
Kv1.3, sequence (P22001 whole entry): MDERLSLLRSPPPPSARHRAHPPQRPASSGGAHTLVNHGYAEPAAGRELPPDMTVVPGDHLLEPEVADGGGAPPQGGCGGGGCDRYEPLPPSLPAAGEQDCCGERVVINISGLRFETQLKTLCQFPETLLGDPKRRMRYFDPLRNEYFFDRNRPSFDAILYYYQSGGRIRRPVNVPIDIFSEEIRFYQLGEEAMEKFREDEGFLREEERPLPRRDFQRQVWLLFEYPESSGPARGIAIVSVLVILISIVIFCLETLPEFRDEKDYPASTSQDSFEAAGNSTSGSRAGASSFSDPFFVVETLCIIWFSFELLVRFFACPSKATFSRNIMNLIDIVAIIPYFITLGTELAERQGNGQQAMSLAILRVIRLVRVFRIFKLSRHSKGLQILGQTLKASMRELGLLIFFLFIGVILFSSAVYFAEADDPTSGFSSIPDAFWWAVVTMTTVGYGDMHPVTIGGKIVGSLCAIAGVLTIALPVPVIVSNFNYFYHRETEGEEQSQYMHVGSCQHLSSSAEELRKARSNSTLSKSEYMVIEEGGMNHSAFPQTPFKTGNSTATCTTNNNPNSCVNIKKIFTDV
From the text: Thereafter, MK-1 was synthesized. […] The blocking of […] by MK-1 is represented by filled circles; the blocking of Kv1.2 by MK-1 is represented by filled diamonds; and the blocking of Kv1.1 by MK-1 is represented by filled triangles.
as §1, §2

CC[C@H](C)[C@H](NC(=O)[C@H](CCC(=O)O)NC(=O)[C@@H](NC(=O)CN)C(C)C)C(=O)N[C@@H](CC(N)=O)C(=O)N[C@H](C(=O)N[C@@H](CCCCN)C(=O)N[C@H]1CSSC[C@@H]2NC(=O)[C@H](CCCCN)NC(=O)CNC(=O)[C@H](Cc3ccccc3)NC(=O)[C@H](CCCNC(=N)N)NC(=O)[C@H](CCSC)NC(=O)CNC(=O)[C@H](C)NC(=O)[C@H](CC(=O)O)NC(=O)[C@H](CCCCN)NC(=O)[C@@H]3CSSC[C@@H](C(=O)N[C@H](C(=O)N4CCC[C@H]4C(=O)N[C@@H](CCCCN)C(=O)O)[C@@H](C)O)NC(=O)[C@H](Cc4c[nH]cn4)NC(=O)[C@H](CSSC[C@H](NC(=O)[C@H](CCC(N)=O)NC(=O)[C@@H]4CCCN4C(=O)[C@H](CO)NC(=O)CNC(=O)[C@H](CO)NC1=O)C(=O)N[C@@H](CC(C)C)C(=O)N[C@@H](CCCCN)C(=O)N1CCC[C@H]1C(=O)N3)NC(=O)[C@H](CCCCN)NC(=O)[C@H](CCCNC(=N)N)NC(=O)[C@H](CC(N)=O)NC(=O)[C@H](CCSC)NC2=O)C(C)C [KTX, kaliotoxin-1]
Output (% Ligands) Anti-S6b (n = 20) [1]: 0%
IC50 (Kv1.2): 1.4 nM
Koff [s]^−1 (Kv1.2; rKv1.2): 0.21 ± 0.01 [s]^−1
Kon [M · s]^−1 (Kv1.2; rKv1.2): 13 · 10^6 ± 3 · 10^6 [M · s]^−1
IC50 (BK): ~5 nM
Koff [s]^−1 (BK; mBK): 0.0211 ± 0.0008 [s]^−1
Kon [M · s]^−1 (BK; mBK): 21 · 10^3 ± 4 · 10^3 [M · s]^−1
induction of twitches in ileum strips (guinea pig ileum [2]): induced twitches
ileum contractions (guinea pig ileum [3]): contractions
IC50 (Kv1.3): 0.5 nM
Koff [s]^−1 (Kv1.3; hKv1.3): 0.0070 ± 0.0009 [s]^−1
Kon [M · s]^−1 (Kv1.3; hKv1.3): 8 · 10^8 ± 1 · 10^8 [M · s]^−1
